Laboratory results taken from patent publication US20080004253A1, “Thiazolopyrimidine modulators of TRPV1” (priority 2006, published 2008).

How the values were obtained:
rat TRPV1 = target: T1, rat TRPV1 (Rattus norvegicus, UniProt O35433); test: Functional assay: block of capsaicin-induced Ca2+ influx, rat assay (rTRPV1/HEK293, FLIPR); type: cell-based; details: rTRPV1/HEK293 cells, capsaicin challenge, Fluo-3 fluorescence; mean; > value = solubility limit in assay medium
T1 construct: expressed in transfected cells; host or cells: HEK293 (rTRPV1/HEK293), geneticin selection
T1 sequence (O35433 whole entry): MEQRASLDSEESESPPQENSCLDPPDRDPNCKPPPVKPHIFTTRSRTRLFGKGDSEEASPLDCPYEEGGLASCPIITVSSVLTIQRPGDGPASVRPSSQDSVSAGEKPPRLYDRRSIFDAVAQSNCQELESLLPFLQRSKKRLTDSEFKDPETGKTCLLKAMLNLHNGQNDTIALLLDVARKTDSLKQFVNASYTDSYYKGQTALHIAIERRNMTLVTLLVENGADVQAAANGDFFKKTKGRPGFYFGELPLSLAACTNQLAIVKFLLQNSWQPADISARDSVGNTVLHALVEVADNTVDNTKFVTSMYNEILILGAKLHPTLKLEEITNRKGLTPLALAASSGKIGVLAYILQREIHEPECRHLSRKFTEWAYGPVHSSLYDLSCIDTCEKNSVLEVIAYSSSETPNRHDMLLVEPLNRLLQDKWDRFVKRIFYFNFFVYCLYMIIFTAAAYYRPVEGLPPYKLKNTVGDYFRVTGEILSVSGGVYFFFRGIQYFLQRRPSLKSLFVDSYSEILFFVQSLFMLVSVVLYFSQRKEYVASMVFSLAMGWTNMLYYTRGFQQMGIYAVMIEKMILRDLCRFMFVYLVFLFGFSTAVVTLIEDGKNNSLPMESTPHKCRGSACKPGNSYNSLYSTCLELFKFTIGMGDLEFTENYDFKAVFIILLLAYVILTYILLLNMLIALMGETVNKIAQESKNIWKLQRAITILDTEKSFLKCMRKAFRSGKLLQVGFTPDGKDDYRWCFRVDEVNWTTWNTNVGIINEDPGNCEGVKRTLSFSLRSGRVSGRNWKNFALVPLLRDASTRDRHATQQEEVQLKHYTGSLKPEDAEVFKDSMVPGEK
How it was run: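 HEK293 cells expressing rat TRPV1, loaded with fluo3 and preincubated 30 min with compound in 20 μM Ca2+ buffer before capsaicin challenge. Block read as fluo3 fluorescence change over 100 s after agonist, 3-fold series from 10 μM in duplicate. IC50 by non-linear regression, mean values.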

human TRPV1 = target: T2, human TRPV1 (Homo sapiens, UniProt Q8NER1); test: Functional assay: block of capsaicin-induced Ca2+ influx, human assay (hTRPV1/HEK293, FLIPR); type: cell-based; details: hTRPV1/HEK293 cells, 150 nM capsaicin challenge, Fluo-3 fluorescence; mean; > value = solubility limit in assay medium
T2 construct: expressed in transfected cells; host or cells: HEK293 (hTRPV1/HEK293), zeocin selection
T2 sequence (Q8NER1 whole entry): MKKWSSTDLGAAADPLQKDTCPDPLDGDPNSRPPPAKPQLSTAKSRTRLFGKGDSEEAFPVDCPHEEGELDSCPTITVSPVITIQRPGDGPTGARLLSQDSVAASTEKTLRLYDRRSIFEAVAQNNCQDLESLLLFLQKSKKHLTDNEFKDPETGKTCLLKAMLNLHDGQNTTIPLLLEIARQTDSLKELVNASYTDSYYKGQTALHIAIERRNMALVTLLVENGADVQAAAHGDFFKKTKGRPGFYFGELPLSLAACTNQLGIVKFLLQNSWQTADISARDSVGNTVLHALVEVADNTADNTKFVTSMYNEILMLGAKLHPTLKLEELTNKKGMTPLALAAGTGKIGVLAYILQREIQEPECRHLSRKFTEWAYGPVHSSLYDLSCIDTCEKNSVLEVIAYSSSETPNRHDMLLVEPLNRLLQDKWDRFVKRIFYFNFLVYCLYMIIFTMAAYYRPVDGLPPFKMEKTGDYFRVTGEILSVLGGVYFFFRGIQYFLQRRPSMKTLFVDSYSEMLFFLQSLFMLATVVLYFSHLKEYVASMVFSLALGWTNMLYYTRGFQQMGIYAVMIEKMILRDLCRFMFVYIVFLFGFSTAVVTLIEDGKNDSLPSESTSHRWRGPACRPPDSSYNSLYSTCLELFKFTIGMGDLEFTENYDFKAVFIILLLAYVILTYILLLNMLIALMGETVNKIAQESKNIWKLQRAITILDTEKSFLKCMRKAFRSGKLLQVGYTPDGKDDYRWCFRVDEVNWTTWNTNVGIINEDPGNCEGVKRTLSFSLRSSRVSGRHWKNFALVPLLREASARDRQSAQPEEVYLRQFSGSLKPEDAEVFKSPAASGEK
How it was run: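 HEK293 cells stably expressing human TRPV1, fluo3-loaded, preincubated 30 min with compound (serial 3-fold dilutions from 10 μM, duplicate) in 20 μM Ca2+ buffer. Capsaicin response taken as fluo3 fluorescence change before vs 100 s after agonist; IC50 by non-linear regression, mean values; free base or TFA salt.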

IC50 (rat TRPV1) [nM] | IC50 (human TRPV1) [nM] | Structure (SMILES)
2 | 2 | Cc1nc(Nc2ccc(S(=O)(=O)N(C)C)cc2)c2nc(Nc3c(Cl)cccc3Cl)sc2n1 [Example 81, 4-[2-(2,6-Dichloro-phenylamino)-5-methyl-thiazolo[5,4-d]pyrimidin-7-ylamino]-N,N-dimethyl-benzenesulfonamide]
25 | 205 | CC1CCCCN1c1nc(Nc2ccc(C(F)(F)F)c(Cl)c2)c2nc(Nc3c(Cl)cccc3Cl)sc2n1 (racemic) [Example 136, (racemic)-N^7-(3-Chloro-4-trifluoromethyl-phenyl)-N^2-(2,6-dichloro-phenyl)-5-(2-methyl-piperidin-1-yl)-thiazolo[5,4-d]pyrimidine-2,7-diamine]
38 | 43 | FC(F)(F)c1ccc(Nc2ncnc3sc(Nc4ccccc4Cl)nc23)cn1 [Example 220, N^2-(2-Chlorophenyl)-N^7-[6-(trifluoromethyl)pyridin-3-yl][1,3]thiazolo[5,4-d]pyrimidine-2,7-diamine]
4 | 14 | FC(F)(F)c1ccc(Nc2ncnc3sc(Nc4c(Cl)cccc4Cl)nc23)cn1 [Example 2, N^2-(2,6-Dichloro-phenyl)-N^7-(6-trifluoromethyl-pyridin-3-yl)-thiazolo[5,4-d]pyrimidine-2,7-diamine]
1210 | 1920 | Cc1nc(Nc2ccc(C(=O)N(C)C)cc2)c2nc(Nc3c(Cl)cccc3Cl)sc2n1 [Example 157, 4-[2-(2,6-Dichloro-phenylamino)-5-methyl-thiazolo[5,4-d]pyrimidin-7-ylamino]-N,N-dimethyl-benzamide]
299 | 557 | FC(F)(F)c1ccc(Nc2ncnc3sc(Nc4ccccc4)nc23)cn1 [Example 21, N^2-Phenyl-N^7-(6-trifluoromethyl-pyridin-3-yl)-thiazolo[5,4-d]pyrimidine-2,7-diamine]
4 | 6 | CS(=O)(=O)c1ccc(Nc2ncnc3sc(Nc4c(Cl)cccc4Cl)nc23)cc1 [Example 87, N^2-(2,6-Dichloro-phenyl)-N^7-(4-methanesulfonyl-phenyl)-thiazolo[5,4-d]pyrimidine-2,7-diamine]
19 | 123 | Cc1nc(Nc2ccc(C(C)C)cc2)c2nc(Nc3c(C)cccc3C)sc2n1 [Example 125, N^2-(2,6-Dimethyl-phenyl)-N^7-(4-isopropyl-phenyl)-5-methyl-thiazolo[5,4-d]pyrimidine-2,7-diamine]
1690 | > 6670 | FC(F)(F)c1ccc(Nc2nc3c(Nc4ccc(C(F)(F)F)cc4)ncnc3s2)cc1 [Example 22, N^2,N^7-Bis-(4-trifluoromethyl-phenyl)-thiazolo[5,4-d]pyrimidine-2,7-diamine]
0.05 | 1 | Cc1nc(Nc2ccc(C(C)(C)O)cc2)c2nc(Nc3c(Cl)cccc3Cl)sc2n1 [Example 74, 2-{4-[2-(2,6-Dichloro-phenylamino)-5-methyl-thiazolo[5,4-d]pyrimidin-7-ylamino]-phenyl}-propan-2-ol]
2 | 43 | CC(C)(C(=O)O)c1ccc(Nc2ncnc3sc(Nc4c(Cl)cccc4Cl)nc23)cc1 [Example 230, 2-[4-({2-[(2,6-Dichlorophenyl)amino][1,3]thiazolo[5,4-d]pyrimidin-7-yl}amino)phenyl]-2-methylpropanoic acid]
23 | 149 | CS(=O)(=O)c1ccc(Nc2nc(N3CCCCC3)nc3sc(Nc4c(Cl)cccc4Cl)nc23)cc1 [Example 129, N^2-(2,6-Dichloro-phenyl)-N^7-(4-methanesulfonyl-phenyl)-5-piperidin-1-yl-thiazolo[5,4-d]pyrimidine-2,7-diamine]
> 6670 | > 6670 | Cc1cccc(C)c1Nc1nc2c(Nc3ccccc3C(F)(F)F)ncnc2s1 [Example 36, N^2-(2,6-Dimethyl-phenyl)-N^7-(2-trifluoromethyl-phenyl)-thiazolo[5,4-d]pyrimidine-2,7-diamine]
7720 | 7070 | FC(F)(F)c1ccc(Nc2ncnc3sc(NC4CCCCC4)nc23)cn1 [Example 233, N^2-Cyclohexyl-N^7-[6-(trifluoromethyl)pyridin-3-yl][1,3]thiazolo[5,4-d]pyrimidine-2,7-diamine]
257 | 737 | Cc1cccc(C)c1Nc1nc2c(Nc3ccc(C#N)c(C(F)(F)F)c3)ncnc2s1 [Example 149, 4-[2-(2,6-Dimethyl-phenylamino)-thiazolo[5,4-d]pyrimidin-7-ylamino]-2-trifluoromethyl-benzonitrile]
> 20000 | > 20000 | Cc1cccc(C)c1Nc1nc2c(Nc3ccc(C(F)(F)F)cn3)ncnc2s1 [Example 176, N^2-(2,6-Dimethyl-phenyl)-N^7-(5-trifluoromethyl-pyridin-2-yl)-thiazolo[5,4-d]pyrimidine-2,7-diamine]

IC50 (rat TRPV1) [nM] | IC50 (human TRPV1) [nM] | Structure (SMILES)
244 | 257 | CS(=O)(=O)c1ccccc1Nc1nc2c(Nc3ccc(C(F)(F)F)cc3)ncnc2s1 [Example 201, N^2-(2-Methanesulfonyl-phenyl)-N^7-(4-trifluoromethyl-phenyl)-thiazolo[5,4-d]pyrimidine-2,7-diamine]
15 | 64 | CSc1ccc(Nc2ncnc3sc(Nc4c(C)cccc4C)nc23)cc1 [Example 120, N^2-(2,6-Dimethyl-phenyl)-N^7-(4-methylsulfanyl-phenyl)-thiazolo[5,4-d]pyrimidine-2,7-diamine]
71 | 139 | COC(=O)C(C)(C)c1ccc(Nc2ncnc3sc(Nc4c(Cl)cccc4Cl)nc23)cc1 [Example 229, Methyl 2-[4-({2-[(2,6-dichlorophenyl)amino][1,3]thiazolo[5,4-d]pyrimidin-7-yl}amino)phenyl]-2-methylpropanoate]
3 | 4 | Cc1nc(Nc2ccc(S(=O)(=O)N(C)C)cc2)c2nc(Nc3c(C)cccc3C)sc2n1 [Example 85, 4-[2-(2,6-Dimethyl-phenylamino)-5-methyl-thiazolo[5,4-d]pyrimidin-7-ylamino]-N,N-dimethyl-benzenesulfonamide]
140 | 171 | Cc1nc(Nc2ccc(SC(F)(F)F)c(Cl)c2)c2nc(Nc3c(C)cccc3C)sc2n1 [Example 131, N^7-(3-Chloro-4-trifluoromethylsulfanyl-phenyl)-N^2-(2,6-dimethyl-phenyl)-5-methyl-thiazolo[5,4-d]pyrimidine-2,7-diamine]
3750 | 3420 | FC(F)(F)c1ccc(Nc2ncnc3sc(Nc4c(Cl)cc(CN5CCC5)cc4Cl)nc23)cc1 [Example 239, N^2-(4-Azetidin-1-ylmethyl-2,6-dichloro-phenyl)-N^7-(4-trifluoromethy-phenyl)-thiazolo[5,4-d]pyrimidine-2,7-diamine]
129 | 87 | Cc1cccc(C)c1Nc1nc2c(Nc3ccc(S(=O)(=O)C(C)C)cc3)ncnc2s1 [Example 122, N^2-(2,6-Dimethyl-phenyl)-N^7-[4-(Propane-2-sulfonyl)-phenyl]-thiazolo[5,4-d]pyrimidine-2,7-diamine]
> 20000 | > 20000 | Cc1cccc(C)c1Nc1nc2c(Nc3ccc(C(=O)O)cc3)ncnc2s1 [Example 172, 4-[2-(2,6-Dimethyl-phenylamino)-thiazolo[5,4-d]pyrimidin-7-ylamino]-benzoic acid]
37 | 70 | CCc1ccc(Nc2ncnc3sc(Nc4c(C)cccc4C)nc23)cc1 [Example 45, N^2-(2,6-Dimethyl-phenyl)-N^7-(4-ethyl-phenyl)-thiazolo[5,4-d]pyrimidine-2,7-diamine]
128 | 271 | Cc1ccc(Nc2nc(C)nc3sc(Nc4c(C)cccc4C)nc23)cc1 [Example 138, N^2-(2,6-Dimethyl-phenyl)-5-methyl-N^7-p-tolyl-thiazolo[5,4-d]pyrimidine-2,7-diamine]
666 | 642 | CC(CO)Nc1nc(Nc2ccc(C(F)(F)F)cc2)c2nc(Nc3c(Cl)cccc3Cl)sc2n1 (racemic) [Example 186, (racemic)-2-[2-(2,6-Dichloro-phenylamino)-7-(4-trifluoromethyl-phenylamino)-thiazolo[5,4-d]pyrimidin-5-ylamino]-propan-1-ol]
31 | 74 | FC(F)(F)c1ccc(Nc2ncnc3sc(Nc4c(Cl)cccc4C(F)(F)F)nc23)cn1 [Example 19, N^2-(2-Chloro-6-trifluoromethyl-phenyl)-N^7-(6-trifluoromethyl-pyridin-3-yl)-thiazolo[5,4-d]pyrimidine-2,7-diamine]
1 | 7 | Cc1cccc(C)c1Nc1nc2c(Nc3ccc(S(=O)(=O)N4CCOCC4)cc3)ncnc2s1 [Example 91, N^2-(2,6-Dimethyl-phenyl)-N^7-[4-(morpholine-4-sulfonyl)-phenyl]-thiazolo[5,4-d]pyrimidine-2,7-diamine]
226 | 213 | Clc1cccc(Cl)c1Nc1nc2c(Nc3ccccc3)ncnc2s1 [Example 204, N^2-(2,6-Dichloro-phenyl)-N^7-phenyl-thiazolo[5,4-d]pyrimidine-2,7-diamine]
> 20000 | > 20000 | Cc1cccc(C)c1Nc1nc2c(Nc3ccc(NS(C)(=O)=O)cc3)ncnc2s1 [Example 175, N-{4-[2-(2,6-Dimethyl-phenylamino)-thiazolo[5,4-d]pyrimidin-7-ylamino]-phenyl}-methanesulfonamide]
